Results reported in PubChem BioAssay AID192 (DTP/NCI, 2004).
Several values for one entry are separate records, joined by “and”; a condition that tells them apart may be missing. Equal values may be shown once. Toxic doses and inconclusive results are not listed.

System: BDF1 mice, B16 melanoma ip, median survival T/C
Assay: NCI In Vivo Anticancer Drug Screen. Data for tumor model B16 Melanoma (intraperitoneal) in B6D2F1 (BDF1) mice
Details: endpoint: median survival time, higher = longer survival
In short: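 Each result divides a survival or tumor-size measurement in the compound-treated group by the same measurement in the vehicle group.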

[1] = dose: 6.25 mg/kg/injection, schedule: Q01DX009 (ip), vehicle: saline with Tween-80
[2] = dose: 12.5 mg/kg/injection, schedule: Q01DX009 (ip), vehicle: saline with Tween-80
[3] = dose: 25.0 mg/kg/injection, schedule: Q01DX009 (ip), vehicle: saline with Tween-80
[4] = dose: 50.0 mg/kg/injection, schedule: Q01DX009 (ip), vehicle: saline with Tween-80
[5] = dose: 100.0 mg/kg/injection, schedule: Q01DX009 (ip), vehicle: saline with Tween-80
[6] = dose: 100.0 mg/kg/injection, schedule: Q04DX003 (ip), vehicle: saline with Tween-80
[7] = dose: 200.0 mg/kg/injection, schedule: Q04DX003 (ip), vehicle: saline with Tween-80
[8] = dose: 400.0 mg/kg/injection, schedule: Q04DX003 (ip), vehicle: saline with Tween-80
[9] = dose: 200.0 mg/kg/injection, schedule: Q01DX009 (ip), vehicle: saline with Tween-80

C=C1C(=O)OC2C3OC(C)(CCC(O)C3COC(C)=O)CC(OC(=O)/C(=C/C)COC(C)=O)C12 (stereo not drawn)
T/C (dose: 0.04 mg/kg/injection, schedule: Q01DX009 (ip), vehicle: suspension in saline): 111 % of control | T/C (dose: 0.09 mg/kg/injection, schedule: Q01DX009 (ip), vehicle: suspension in saline): 109 % of control | T/C (dose: 0.18 mg/kg/injection, schedule: Q01DX009 (ip), vehicle: suspension in saline): 107 % of control | T/C (dose: 0.37 mg/kg/injection, schedule: Q01DX009 (ip), vehicle: suspension in saline): 91 % of control | T/C (dose: 6.25 mg/kg/injection, schedule: Q01DX009 (ip), vehicle: Klucel (hydroxypropylcellulose) (HPC)): 91 % of control | T/C (dose: 12.5 mg/kg/injection, schedule: Q01DX009 (ip), vehicle: Klucel (hydroxypropylcellulose) (HPC)): 98 % of control | T/C (dose: 25.0 mg/kg/injection, schedule: Q01DX009 (ip), vehicle: Klucel (hydroxypropylcellulose) (HPC)): 105 % of control

CCOC(=O)C1=C(C)O/C(=C/c2cccc(Cl)c2)C1=O
T/C [1]: 110 % of control | T/C [2]: 113 % of control | T/C [3]: 113 % of control | T/C [4]: 86 % of control and 107 % of control | T/C [5]: 97 % of control

Cc1nc(SCc2ccc(Cl)cc2)[nH]c(=O)c1CCO
T/C [6]: 100 % of control | T/C [7]: 102 % of control | T/C [8]: 92 % of control

O=C(OC1CC2CC=CC21)c1ccc([N+](=O)[O-])cc1 (stereo not drawn)
T/C [6]: 100 % of control | T/C [7]: 94 % of control | T/C [8]: 94 % of control

CCCCC(CC)COP(=O)(CC(CC)CCCC)OCC(CC)CCCC (stereo not drawn)
T/C [1]: 94 % of control | T/C (dose: 6.25 mg/kg/injection, schedule: Q04DX003 (ip), vehicle: saline): 107 % of control | T/C (dose: 8.0 mg/kg/injection, schedule: Q04DX003 (ip), vehicle: saline with Tween-80): 102 % of control | T/C (dose: 12.0 mg/kg/injection, schedule: Q04DX003 (ip), vehicle: saline with Tween-80): 97 % of control | T/C [2]: 89 % of control | T/C (dose: 18.0 mg/kg/injection, schedule: Q04DX003 (ip), vehicle: saline with Tween-80): 100 % of control | T/C [3]: 86 % of control | T/C (dose: 25.0 mg/kg/injection, schedule: Q04DX003 (ip), vehicle: saline): 123 % of control

CCCC(C)c1ccccc1O (stereo not drawn)
T/C [3]: 108 % of control | T/C [4]: 108 % of control | T/C [5]: 92 % of control

CC(=O)C1=C(O)C2C3c4c[nH]c5cccc(c45)CC3C(C)(C)N2C1=O (stereo not drawn)
T/C (dose: 0.13 mg/kg/injection, schedule: Q01DX009 (ip), vehicle: saline): 102 % of control | T/C (dose: 0.25 mg/kg/injection, schedule: Q01DX009 (ip), vehicle: saline): 106 % of control | T/C (dose: 0.5 mg/kg/injection, schedule: Q01DX009 (ip), vehicle: saline): 106 % of control | T/C (dose: 1.0 mg/kg/injection, schedule: Q01DX009 (ip), vehicle: saline): 106 % of control | T/C (dose: 2.0 mg/kg/injection, schedule: Q01DX009 (ip), vehicle: saline): 102 % of control | T/C (dose: 4.0 mg/kg/injection, schedule: Q01DX009 (ip), vehicle: saline): 107 % of control | T/C (dose: 8.0 mg/kg/injection, schedule: Q01DX009 (ip), vehicle: saline): 111 % of control

CN(N=O)C(=O)Nc1c[nH]c(=O)[nH]c1=O
T/C (dose: 0.13 mg/kg/injection, schedule: Q01DX009 (ip), vehicle: saline with Tween-80): 113 % of control | T/C (dose: 0.5 mg/kg/injection, schedule: Q01DX009 (ip), vehicle: saline with Tween-80): 105 % of control | T/C (dose: 1.0 mg/kg/injection, schedule: Q01DX009 (ip), vehicle: saline with Tween-80): 105 % of control | T/C (dose: 2.0 mg/kg/injection, schedule: Q01DX009 (ip), vehicle: saline with Tween-80): 115 % of control | T/C (dose: 8.0 mg/kg/injection, schedule: Q01DX009 (ip), vehicle: saline with Tween-80): 170 % of control | T/C (dose: 16.0 mg/kg/injection, schedule: Q01DX009 (ip), vehicle: saline with Tween-80): 182 % of control | T/C (dose: 16.5 mg/kg/injection, schedule: Q01DX009 (ip), vehicle: saline with Tween-80): 193 % of control | T/C [3]: 200 % of control | T/C (dose: 25.0 mg/kg/injection, schedule: Q01DX009 (ip), vehicle: saline): 176 % of control | T/C (dose: 37.5 mg/kg/injection, schedule: Q01DX009 (ip), vehicle: saline with Tween-80): 200 % of control

CCOC(=O)c1ccc(OC(=O)Nc2ccccc2OC)cc1
T/C [5]: 95 % of control | T/C [9]: 88 % of control

O=C(NC(CO)C(=O)OCc1ccccc1)OCc1ccccc1 (stereo not drawn)
T/C [5]: 111 % of control | T/C [9]: 113 % of control | T/C (dose: 400.0 mg/kg/injection, schedule: Q01DX009 (ip), vehicle: saline with Tween-80): 105 % of control

CCCCCCCCCCCCNC(=O)Nc1cc(C)ccc1C
T/C (dose: 100.0 mg/kg/injection, schedule: Q01DX009 (ip), vehicle: Klucel (hydroxypropylcellulose) (HPC)): 92 % of control | T/C (dose: 200.0 mg/kg/injection, schedule: Q01DX009 (ip), vehicle: Klucel (hydroxypropylcellulose) (HPC)): 96 % of control
